From PMC4111603 (PLoS ONE, 2014)
Like-named read-outs stand apart in the source and are kept apart here.

Key:
[1] = test system: fatty acid amide hydrolase (FAAH); details: cited from earlier work
[2] = test system: COX-2; details: read-out: IC50, AA oxygenation by COX-2; cited from earlier work
[3] = cited from earlier work
[4] = target: T1, Ovine COX-1 (Ovis aries, UniProt P05979); experiment: COX-1 oxygenation of arachidonic acid, oxygen electrode; format: biochemical; details: for COX-1 activity (% of control): 10 µM AA, initial activity 10-30 s, mean ± s.e.m., n = 3; for inhibition at 300 µM: 300 µM compound, read-out: inhibition of COX-1-catalysed oxygenation of arachidonic acid
T1 construct: purchased Cayman Chemical Co. 60100
T1 sequence (P05979 25-600): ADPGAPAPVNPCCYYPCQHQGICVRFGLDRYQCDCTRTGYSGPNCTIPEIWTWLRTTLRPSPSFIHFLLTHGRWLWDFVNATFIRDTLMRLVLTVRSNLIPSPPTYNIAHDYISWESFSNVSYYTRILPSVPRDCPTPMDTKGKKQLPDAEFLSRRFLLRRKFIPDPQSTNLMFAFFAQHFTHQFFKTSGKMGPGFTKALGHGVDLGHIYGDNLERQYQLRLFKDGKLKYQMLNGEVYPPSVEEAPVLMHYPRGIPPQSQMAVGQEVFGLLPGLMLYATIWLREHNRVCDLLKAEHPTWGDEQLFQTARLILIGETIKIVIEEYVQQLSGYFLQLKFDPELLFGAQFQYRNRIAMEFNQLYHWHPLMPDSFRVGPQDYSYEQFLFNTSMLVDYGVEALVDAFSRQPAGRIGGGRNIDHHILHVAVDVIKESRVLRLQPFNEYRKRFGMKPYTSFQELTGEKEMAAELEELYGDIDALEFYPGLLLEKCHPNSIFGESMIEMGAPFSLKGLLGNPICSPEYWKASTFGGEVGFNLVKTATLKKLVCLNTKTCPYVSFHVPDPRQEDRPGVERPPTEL
Procedure: (§1) The assay was performed according to Meade et al. with minor modifications using an oxygen electrode chamber with integral stirring (Oxygraph System, Hansatech Instruments, King’s Lynn, U.K.). The electrode was calibrated to ambient temperature and air pressure. Samples were prepared in 0.1 M Tris-HCl buffer pH 7.4 containing 1 µM haematin, 2 mM phenol, 5 mM EDTA, 10 µM substrate (AA or 2-AG) (final assay volume was 2 ml). After addition of test substance dissolved in DMSO (final assay concentration 1%) a baseline was established for 5 min before initiation of reaction by addition of 200 units COX-1 or COX-2. Change in oxygen consumption was monitored for approximately 5 min.
(§2) FAAH inhibition was calculated using log(inhibitor) vs. response with variable slope (four parameters) algorithm in the GraphPad Prism computer program (GraphPad Software Inc., San Diego, CA. USA). […] The two curves were compared by Akaike’s informative criteria and the best fit was chosen. Initial COX activities were calculated as the change in oxygen tension between 10 and 30 seconds after addition of enzyme.

[5] = cited from earlier work; for urinary recovery: 24 h after administration of 400 mg of ibuprofen
[6] = target: T2, rat brain FAAH (Rattus norvegicus, UniProt P97612); experiment: FAAH hydrolysis of [3H]AEA in rat brain homogenates; format: biochemical; details: 0.5 µM AEA; for inhibition at 1000 µM: read-out: % inhibition of [3H]AEA hydrolysis @ 1000 µM, 1000 µM compound
T2 construct: FAAH activity was quantified by measuring hydrolysis of tritium labelled AEA in rat brain homogenates; from tissue; host or cells: rat brain (minus cerebella), Wistar or Sprague-Dawley, washed membrane pellets
T2 sequence (P97612 1-579): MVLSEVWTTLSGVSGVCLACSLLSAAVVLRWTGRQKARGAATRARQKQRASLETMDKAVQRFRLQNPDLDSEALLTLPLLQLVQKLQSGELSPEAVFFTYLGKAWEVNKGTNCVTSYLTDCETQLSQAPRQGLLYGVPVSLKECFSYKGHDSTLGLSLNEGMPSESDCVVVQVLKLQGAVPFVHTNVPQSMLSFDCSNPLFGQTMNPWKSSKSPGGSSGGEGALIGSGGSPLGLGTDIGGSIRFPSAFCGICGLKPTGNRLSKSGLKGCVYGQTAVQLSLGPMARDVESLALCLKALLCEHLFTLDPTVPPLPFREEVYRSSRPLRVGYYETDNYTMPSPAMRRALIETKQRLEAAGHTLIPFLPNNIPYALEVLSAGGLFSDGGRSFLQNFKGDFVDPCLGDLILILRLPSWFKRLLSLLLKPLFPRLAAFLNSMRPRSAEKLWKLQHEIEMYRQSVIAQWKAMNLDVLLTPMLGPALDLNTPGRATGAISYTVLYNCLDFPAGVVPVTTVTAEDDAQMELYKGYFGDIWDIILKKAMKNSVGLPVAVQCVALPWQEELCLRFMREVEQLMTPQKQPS
Procedure: Brains (minus cerebella) from adult Wistar or Sprague-Dawley stored at −80°C were thawed, weighed and homogenized in cold buffer (20 mM HEPES, 1 mM MgCl2 pH 7.0). Homogenates were centrifuged at 35,000 g at 4°C for 20 min and the pellet was resuspended in homogenization buffer (repeated twice) before being incubated at 37°C for 15 min to degrade any endogenous substrate that might interfere with the FAAH assay. Following centrifugation, the pellets were resuspended in cold buffer (50 mM Tris-HCl, 1 mM EDTA, 3 mM MgCl2, pH 7.4). The protein concentration of each homogenates was determined according to the Bradford assay after which the samples were frozen in aliquots at −80°C until used for FAAH assay. Ethical permission for the animal experiments was obtained from the local animal research ethical committee (Umeå Ethical Committee for Animal Research, Umeå, Sweden).
The assay was performed according to Boldrup et al.. Homogenates (1 µg protein per assay) diluted in 10 mM Tris-HCl, 1 mM EDTA, pH 7.4 or pH 5.1 were mixed with test substance dissolved in DMSO (total concentration in assay 5%) at an ambient temperature of 4°C. Reactions were initiated by addition of AEA-[^3H] (assay concentration 0.5 µM) in 10 mM Tris-HCl, 1 mM EDTA, pH 7.4 containing 10 mg ml^−1 fatty acid-free bovine serum and incubation at 37°C which was allowed to proceed for 10 min. […] Blank samples contained buffer instead of homogenate and DMSO (5%). The assay volume of each sample was 200 µl. The pH values given in the text were determined by measurement at 37°C of scaled-up mixtures of homogenization and assay buffers. The reaction was terminated by addition of 400 µl activated charcoal (80 µl activated charcoal +320 µl 0.5 M HCl) and placement of samples on ice. Samples were kept in room temperature for 45–60 min before being centrifuged at 2500 rpm for 10 min. Aliquots (200 µl) of the supernatant was analyzed for tritium content by liquid scintillation with quench correction.
as §2

[7] = test system: COX-1; parameters: method as in PMID 24120370; details: read-out: IC50, AA oxygenation by COX-1; cited from earlier work
[8] = test system: COX-2; details: read-out: IC50, 2-AG oxygenation; cited from earlier work
[9] = target: T3, human recombinant COX-2 (Homo sapiens, UniProt P35354); experiment: COX-2 oxygenation of 2-AG, oxygen electrode; format: biochemical; details: for COX-2 activity (% of control): substrate 2-AG 10 µM, initial activity 10-30 s, n = 3
T3 construct: purchased Cayman Chemical Co. 60122
T3 sequence (P35354 18-604): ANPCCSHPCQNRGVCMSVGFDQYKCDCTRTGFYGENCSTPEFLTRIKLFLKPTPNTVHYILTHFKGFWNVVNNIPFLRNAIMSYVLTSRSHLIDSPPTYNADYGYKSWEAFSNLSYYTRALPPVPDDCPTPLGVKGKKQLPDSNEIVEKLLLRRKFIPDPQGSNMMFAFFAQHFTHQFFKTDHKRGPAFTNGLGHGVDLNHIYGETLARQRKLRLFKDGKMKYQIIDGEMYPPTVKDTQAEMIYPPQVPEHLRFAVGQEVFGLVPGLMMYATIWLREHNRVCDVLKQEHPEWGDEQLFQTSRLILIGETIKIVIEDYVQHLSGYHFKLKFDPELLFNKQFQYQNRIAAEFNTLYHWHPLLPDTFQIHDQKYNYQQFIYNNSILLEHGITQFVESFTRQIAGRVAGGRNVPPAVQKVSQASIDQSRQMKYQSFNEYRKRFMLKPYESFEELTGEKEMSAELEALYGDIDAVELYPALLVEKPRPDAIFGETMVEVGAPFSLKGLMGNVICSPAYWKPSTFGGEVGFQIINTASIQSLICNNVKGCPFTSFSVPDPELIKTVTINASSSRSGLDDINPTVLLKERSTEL
Procedure: as §1, §2

[10] = target: T3, human recombinant COX-2; experiment: COX-2 oxygenation of arachidonic acid, oxygen electrode; format: biochemical; details: for COX-2 activity (% of control): substrate AA 10 µM, initial activity 10-30 s, n = 3
Procedure: as §1, §2

[11] = test system: µ-opoid receptors; details: cited from earlier work
[12] = test system: FAAH; parameters: method as in PMID 16997568; details: pH 6 and 8; rat brain homogenates; cited from earlier work
[13] = test system: NAAA; parameters: method as in PMID 16154384; details: cited from earlier work
[14] = pH 6.0, read-out: IC50, inhibition of [3H]AEA hydrolysis (converted)
[15] = pH 6.0, read-out: pI50, inhibition of [3H]AEA hydrolysis (converted)

Cc1cccnc1NC(=O)C(C)c1ccc(CC(C)C)cc1 (stereo not drawn)
potency as FAAH inhibitor at pH 6 versus pH 8 [1]: slightly less potent inhibitor of FAAH at pH 6 than at pH 8

CC(C(=O)O)c1ccc(-c2ccccc2)c(F)c1 (racemic) [Flurbiprofen, (±)-2-flouro-α-methyl(1,1′-biphenyl)-4-acetic acid, reference compound]
IC50 [2]: […] | maximal plasma concentration (racemate equivalent of R- and S-enantiomers) ([3]; dose of 50 mg): […] | inhibition of COX-1 ([4]; 30 µM compound): Complete inhibition | share of the dose recovered in the urine ([5]; flurbiprofen 50 mg a day for 10 consecutive days): 23% | IC50 [6, 14]: 28 µM | IC50 [6, 15]: 27.5 µM | IC50 ([6]; pH 7.3, read-out: IC50, inhibition of [3H]AEA hydrolysis (converted)): 51 µM | IC50 ([6]; pH 7.3, read-out: pI50, inhibition of [3H]AEA hydrolysis (converted)): 51.3 µM | IC50 [7]: […] | IC50 [8]: […]

CC(C)Cc1ccc(C(C)C(=O)O)cc1 (racemic) [Ibuprofen, (±)-2-(4-Isobutylphenyl)propanoic acid]
IC50 ([1]; read-out: potency, inhibition of AEA hydrolysis by FAAH): 270 µM | peak plasma concentration ([3]; 200 mg single doses of two different ibuprofen preparations): 110 to 150 µM | urinary recovery [5]: 11%

CC(C(=O)O)c1ccc(C(O)C(C)C)cc1 (stereo not drawn) [1′-OH-Ibuprofen, 2-[4-(1-hydroxy-2-methylpropyl)phenyl]propionic acid]
COX-2 activity (% of control) ([9]; 100 µM NSAID): 103±22 % of control | COX-2 activity (% of control) ([9]; 300 µM NSAID): 108±15 % of control | COX-1 activity (% of control) ([4]; 100 µM NSAID): 112±21 % of control | COX-1 activity (% of control) ([4]; 300 µM NSAID): 81±21 % of control | inhibition at 300 µM [4]: 19% | COX-1 activity (% of control) ([4]; 1000 µM NSAID): 102±18 % of control | IC50 [6, 14]: 340 µM | IC50 [6, 15]: 339 µM | inhibition at 1000 µM ([6]; pH 7.3): 47 ± 0.8% | COX-2 activity (% of control) ([10]; 100 µM NSAID): 91±8 % of control | COX-2 activity (% of control) ([10]; 300 µM NSAID): 59±13 % of control

CN1CC[C@]23c4c5ccc(O)c4O[C@H]2[C@@H](O[C@@H]2O[C@H](C(=O)O)[C@@H](O)[C@H](O)[C@H]2O)C=C[C@H]3[C@H]1C5 [6-glucuronide metabolite of morphine]
potency relative to parent drug (morphine) [11]: 2–4 times

CC(Cc1ccc(C(C)C(=O)O)cc1)C(=O)O (stereo not drawn) [Carboxyibuprofen, 2-[4-(2-carboxypropyl)phenyl]propionic acid]
COX-2 activity (% of control) ([9]; 100 µM NSAID): 105±19 % of control | COX-2 activity (% of control) ([9]; 300 µM NSAID): 132±17 % of control | effect on rate of oxygenation of 2-AG ([9]; 300 µM compound, Fig. S1): appeared to increase the rate of oxygenation | inhibition at 300 µM [4]: 4% | urinary recovery [5]: 40% | IC50 [6, 14]: 410 µM | IC50 [6, 15]: 417 µM | inhibition at 1000 µM ([6]; pH 7.3): 31 ± 4% | effect on rate of oxygenation of AA ([10]; 10 µM compound, Fig. S2, preliminary, two experiments): appeared to increase the rate of oxygenation | COX-2 activity (% of control) ([10]; 100 µM NSAID): 132±16 % of control | COX-2 activity (% of control) ([10]; 300 µM NSAID): 139±41 % of control

NC(=O)c1cccc(-c2cccc(OC(=O)NC3CCCCC3)c2)c1 [URB597]
inhibition of AEA hydrolysis [12]: completely inhibits | activity towards NAAA [13]: lacks activity
